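Test compounds were applied to cells in 96-well plates for 48 hours at 5 doses. TGI: total growth inhibition.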
Legend:
Experiment in all cases: NCI-60 cell line screen, 48 h
HOP-92 NSCLC = system: HOP-92 NSCLC
CAKI-1 renal = system: CAKI-1 renal
SNB-75 CNS = system: SNB-75 CNS
RXF 393 renal = system: RXF 393 renal
MDA-N = system: MDA-N
OVCAR-5 ovarian = system: OVCAR-5 ovarian
HCT-116 colon = system: HCT-116 colon
A549 NSCLC = system: A549 NSCLC
SK-MEL-5 melanoma = system: SK-MEL-5 melanoma
NCI/ADR-RES ovarian = system: NCI/ADR-RES ovarian
M14 melanoma = system: M14 melanoma
EKVX NSCLC = system: EKVX NSCLC
SW-620 colon = system: SW-620 colon
DU-145 prostate = system: DU-145 prostate
MCF7 breast = system: MCF7 breast
KM12 colon = system: KM12 colon
OVCAR-4 ovarian = system: OVCAR-4 ovarian
UO-31 renal = system: UO-31 renal
NCI-H522 lung = system: NCI-H522 lung
CCRF-CEM leukemia = system: CCRF-CEM leukemia
BT-549 breast = system: BT-549 breast
SN12C renal = system: SN12C renal
MDA-MB-435 = system: MDA-MB-435
SF-295 CNS = system: SF-295 CNS
MDA-MB-231 breast = system: MDA-MB-231 breast
HOP-62 NSCLC = system: HOP-62 NSCLC
TK-10 renal = system: TK-10 renal
HL-60(TB) leukemia = system: HL-60(TB) leukemia
LOX IMVI melanoma = system: LOX IMVI melanoma
U251 CNS = system: U251 CNS
A498 renal = system: A498 renal
IGROV1 ovarian = system: IGROV1 ovarian
SK-MEL-2 melanoma = system: SK-MEL-2 melanoma
ACHN renal = system: ACHN renal
K-562 leukemia = system: K-562 leukemia
NCI-H23 lung = system: NCI-H23 lung
NCI-H460 lung = system: NCI-H460 lung
786-0 renal = system: 786-0 renal
HT29 colon = system: HT29 colon
HS 578T breast = system: HS 578T breast
COLO 205 colon = system: COLO 205 colon
SR leukemia = system: SR leukemia
UACC-257 melanoma = system: UACC-257 melanoma
RPMI-8226 leukemia = system: RPMI-8226 leukemia
SK-MEL-28 melanoma = system: SK-MEL-28 melanoma
SF-539 CNS = system: SF-539 CNS
SNB-19 CNS = system: SNB-19 CNS
PC-3 prostate = system: PC-3 prostate
MOLT-4 leukemia = system: MOLT-4 leukemia
OVCAR-8 ovarian = system: OVCAR-8 ovarian
NCI-H226 lung = system: NCI-H226 lung
MALME-3M melanoma = system: MALME-3M melanoma
HCC-2998 colon = system: HCC-2998 colon
HCT-15 colon = system: HCT-15 colon
T-47D breast = system: T-47D breast
UACC-62 melanoma = system: UACC-62 melanoma
SK-OV-3 ovarian = system: SK-OV-3 ovarian
OVCAR-3 ovarian = system: OVCAR-3 ovarian

Measured: TGI

COCn1c(C)c(C)c2c(=O)oc(N(C)C)nc21
> 100 µM: HOP-92 NSCLC | CAKI-1 renal | SNB-75 CNS | RXF 393 renal | MDA-N | OVCAR-5 ovarian | HCT-116 colon | A549 NSCLC | SK-MEL-5 melanoma | NCI/ADR-RES ovarian | M14 melanoma | EKVX NSCLC | SW-620 colon | DU-145 prostate | MCF7 breast | KM12 colon | OVCAR-4 ovarian | UO-31 renal | NCI-H522 lung | CCRF-CEM leukemia | BT-549 breast | SN12C renal | MDA-MB-435 | SF-295 CNS | MDA-MB-231 breast | HOP-62 NSCLC | TK-10 renal | HL-60(TB) leukemia | LOX IMVI melanoma | U251 CNS | A498 renal | IGROV1 ovarian | SK-MEL-2 melanoma | ACHN renal | K-562 leukemia | NCI-H23 lung | NCI-H460 lung | 786-0 renal | HT29 colon | HS 578T breast | COLO 205 colon | SR leukemia | UACC-257 melanoma | RPMI-8226 leukemia | SK-MEL-28 melanoma | SF-539 CNS | SNB-19 CNS | PC-3 prostate | MOLT-4 leukemia | OVCAR-8 ovarian | NCI-H226 lung | MALME-3M melanoma | HCC-2998 colon | HCT-15 colon | T-47D breast | UACC-62 melanoma | SK-OV-3 ovarian

O=[N+]([O-])c1cc(Cl)cc2cc(Br)cnc12
> 23.5 µM: HOP-92 NSCLC
> 23.7 µM: IGROV1 ovarian
> 31.6 µM: SNB-75 CNS | RXF 393 renal | MDA-N | OVCAR-5 ovarian | HCT-116 colon | A549 NSCLC | SK-MEL-5 melanoma | NCI/ADR-RES ovarian | M14 melanoma | EKVX NSCLC | SW-620 colon | DU-145 prostate | MCF7 breast | OVCAR-4 ovarian | UO-31 renal | NCI-H522 lung | CCRF-CEM leukemia | BT-549 breast | SN12C renal | MDA-MB-435 | SF-295 CNS | MDA-MB-231 breast | HOP-62 NSCLC | TK-10 renal | HL-60(TB) leukemia | LOX IMVI melanoma | U251 CNS | A498 renal | ACHN renal | K-562 leukemia | NCI-H23 lung | NCI-H460 lung | 786-0 renal | HT29 colon | COLO 205 colon | SR leukemia | UACC-257 melanoma | RPMI-8226 leukemia | SK-MEL-28 melanoma | SF-539 CNS | SNB-19 CNS | PC-3 prostate | OVCAR-3 ovarian | MOLT-4 leukemia | OVCAR-8 ovarian | NCI-H226 lung | MALME-3M melanoma | HCC-2998 colon | HCT-15 colon | T-47D breast | UACC-62 melanoma
> 100 µM: SK-MEL-2 melanoma
28.3 µM: HS 578T breast

Source: PubChem BioAssay (NCI)
